These results are taken from US3965180A, “4'-Fluoro-4-{[4-(phenyl)-4-alkoxy-cyclo-hexyl]amino}butyrophenones and the salts thereof” (The Upjohn Company, priority 1973, dated 1976).

Holding throughout (format): in vivo
Experiment [1] relates to mice. In words: Pedestal test (mice staying on the pedestal for more than 1 minute). To be noted: Mus musculus, ip, 1 min, intraperitoneal injection, stay on pedestal for more than 1 minute, read-out: ED50, P = pedestal test. The method, then: (§1) The free bases and acid addition salts of the novel compounds of Formula I are useful as central nervous system (CNS) depressants when administered to humans and animals.
(§2) Tranquilizing effects of certain compounds of this invention are shown by the following tests in mice:
Pedestal test: The untreated mouse leaves a standard pedestal in less than a minute to climb back to the floor of the standard mouse box. Tranquilized mice will stay on the pedestal for more than 1 minute.

The test system of experiment [2] is mice. In words: Chimney test (ability of mice to back up and out of a vertical glass cylinder within 30 seconds). To be noted: Mus musculus, ip, intraperitoneal injection, dose at which 50% of the mice failed to back out within 30 seconds, read-out: ED50, Ch = chimney test.
Source text: as §1, §2
Chimney test: [Med. Exp. 4, 145 (1961)]: The test determines the ability of mice to back up and out of a vertical glass cylinder within 30 seconds. At the effective dosage, 50% of the mice failed doing it.

Experiment [3] has as its system mice. In words: Dish test (mice remaining in Petri dish for more than 3 minutes). The conditions noted are these: Mus musculus, ip, 0.05 h, intraperitoneal injection, dose at which 50% of the mice remain in the dish more than 3 minutes, read-out: ED50, D = dish test. The method, then: as §1, §2
Dish test: Mice in Petri dishes (10 cm. diameter, 5 cm. high, partially embedded in wood shavings), climb out in a very short time, when not treated. Mice remaining in the dish for more than 3 minutes indicates tranquilization. ED50 equals the dose of test compound at which 50% of the mice remain in the dish.

Experiment [4] concerns mice. Nature of the experiment: Nicotine antagonism test (nicotine salicylate 2 mg./kg.; (3) death). To be noted: Mus musculus, ip, intraperitoneal injection 30 minutes before nicotine salicylate (2 mg./kg.), read-out: ED50, Ni = nicotine antagonism (3) test. The method, then:
as §2
Nicotine antagonism test: Mice in a group of 6 are injected with the test compound. Thirty minutes later the mice including control (untreated) mice are injected with nicotine salicylate (2 mg./kg.). The control mice show overstimulation, i.e., (1) running convulsions followed by (2) tonic extensor fits; followed by (3) death.

Structures are written as SMILES. Structures can show the parent of a compound that is named as a salt.

Regarding `CO[C@]1(c2ccc(F)cc2)CC[C@@H](NCCCC(=O)c2ccc(F)cc2)CC1` [4'-fluoro-4-{[4-cis-(p-fluorophenyl)-4-transmethoxycyclohexyl]amino}butyrophenone hydrohydrochloride (I)], the ED50 (as a rule, the dose that gives a 50% effect, or the effect in half of the subjects) with mice [1] amounted to 2.5 mg/kg; in the experiment with mice [2], 8 mg/kg; with mice [3], 1.6 mg/kg; in the experiment with mice [4], 3.2 mg/kg.
For `CO[C@]1(c2ccc(C)cc2)CC[C@H](NCCCC(=O)c2ccc(F)cc2)CC1` [4'-fluoro-4-{[4-cis-methoxy-4-trans-(p-methylphenyl)cyclohexyl]amino}butyrophenone hydrochloride (I)], in that order: 2 mg/kg, 2.5 mg/kg, 1.1 mg/kg and 4.5 mg/kg.
For `CO[C@]1(c2ccc(F)cc2)CC[C@H](NCCCC(=O)c2ccc(F)cc2)CC1` [4'-fluoro-4-{[4-trans-(p-fluorophenyl)-4-cis-methoxycyclohexyl]amino}butyrophenone hydrochloride (I)], in that order: 1.3 mg/kg, 2.5 mg/kg, 0.09 mg/kg and 0.4 mg/kg.
